Data: PubChem BioAssay (NCI)
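Five compound concentrations were applied to cells in 96-well plates for 48 hours; endpoints were derived by simple linear interpolation of the resulting dose-response curve. At the TGI there is no net growth.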

Tests used:
Experiment in all cases: NCI-60 cell line screen, 48 h
MALME-3M melanoma = test system: MALME-3M melanoma
OVCAR-3 ovarian = test system: OVCAR-3 ovarian
CCRF-CEM leukemia = test system: CCRF-CEM leukemia
COLO 205 colon = test system: COLO 205 colon
SN12C renal = test system: SN12C renal
DU-145 prostate = test system: DU-145 prostate
HS 578T breast = test system: HS 578T breast
LOX IMVI melanoma = test system: LOX IMVI melanoma
OVCAR-4 ovarian = test system: OVCAR-4 ovarian
ACHN renal = test system: ACHN renal
PC-3 prostate = test system: PC-3 prostate
U251 CNS = test system: U251 CNS
SNB-75 CNS = test system: SNB-75 CNS
UACC-257 melanoma = test system: UACC-257 melanoma
NCI-H226 lung = test system: NCI-H226 lung
UO-31 renal = test system: UO-31 renal
MOLT-4 leukemia = test system: MOLT-4 leukemia
T-47D breast = test system: T-47D breast
M14 melanoma = test system: M14 melanoma

| Compound | TGI (MALME-3M melanoma) [µM] | TGI (OVCAR-3 ovarian) [µM] | TGI (CCRF-CEM leukemia) [µM] | TGI (COLO 205 colon) [µM] | TGI (SN12C renal) [µM] | TGI (DU-145 prostate) [µM] | TGI (HS 578T breast) [µM] | TGI (LOX IMVI melanoma) [µM] | TGI (OVCAR-4 ovarian) [µM] | TGI (ACHN renal) [µM] | TGI (PC-3 prostate) [µM] | TGI (U251 CNS) [µM] | TGI (SNB-75 CNS) [µM] | TGI (UACC-257 melanoma) [µM] | TGI (NCI-H226 lung) [µM] | TGI (UO-31 renal) [µM] | TGI (MOLT-4 leukemia) [µM] | TGI (T-47D breast) [µM] | TGI (M14 melanoma) [µM] |
| --- | --- | --- | --- | --- | --- | --- | --- | --- | --- | --- | --- | --- | --- | --- | --- | --- | --- | --- | --- |
| Cc1ccc(-n2cnc3c(N)nc(N)nc32)cc1 | > 100 | > 100 | > 100 | > 100 | > 100 | > 100 | > 100 | > 100 | > 100 | > 100 | > 100 | > 100 | > 100 | > 100 | > 100 | > 100 | > 100 | > 100 | > 100 |
| COC(=O)C1=C(O)C(C(=O)OC)[C@]2(O)[C@H](C(=O)OC)[C@H]1C[C@@H](c1ccc(F)cc1)[C@H]2C(=O)OC (stereo partly drawn) | 28 | 35.5 | 70.7 | 29.6 | 26.3 | 67.6 | 81.8 | 42.1 | > 100 | 43.5 | 33.2 | 31.9 | 73.2 | 41.9 | 49.9 | 29.1 | > 100 | > 100 | 27.5 |
| C=C1C(=O)C23CC1C[C@H](OC(C)=O)[C@H]2C1(C)C(OC(C)=O)C[C@H](O)C(C)(C)[C@H]1C(=O)[C@@H]3OC(C)=O (stereo partly drawn) | 5.15 | 12.7 | 7.65 | 4.8 | 15.1 | 25.7 | 15.3 | 10.3 | 16.3 | 14.1 | 24.6 | 29.3 | 32.8 | 11 | 43.3 | 9.75 | 4.03 | 5.44 | 9.5 |
| O=C1NC(=O)C(Cc2ccccc2)(c2cccnc2)N1 (stereo not drawn) | > 100 | > 100 | > 100 | > 100 | > 100 | > 100 | > 100 | > 100 | > 100 | > 100 | > 100 | > 100 | > 100 | > 100 | > 100 | > 100 | > 100 | > 100 | > 100 |
| O=C(c1cc(Cl)cc(Cl)c1)N(C(=O)N1CCN(c2ccccc2)CC1)c1ccccc1 | > 100 | > 100 | > 100 | 39.6 | > 100 | > 100 | > 100 | > 100 | > 100 | > 100 | > 100 | > 100 | > 100 | > 100 | > 100 | > 100 | > 100 | > 100 | > 100 |
| CCN(CC)C(=C(C(Cl)=C(Cl)Cl)[N+](=O)[O-])N(CC)CC | 91.6 | > 100 | > 100 | > 100 | > 100 | > 100 | 68.5 | > 100 | > 100 | > 100 | > 100 | > 100 | > 100 | > 100 | > 100 | > 100 | > 100 | > 100 | > 100 |
| CC(=O)Oc1cc2c(n(C)c1=O)-c1ccccc1C2 | > 100 | > 100 | > 100 | > 100 | > 100 | > 100 | > 100 | > 100 | > 100 | > 100 | > 100 | > 100 | > 100 | > 100 | > 100 | > 100 | > 100 | > 100 | > 100 |
| O=C(N/N=C/c1ccc2c(c1)OCO2)Nc1ccccc1Cl | 56.2 | 2.82 | > 100 | 5.52 | > 46.7 | > 20.3 | 8.25 | > 100 | > 100 | > 100 | > 100 | > 100 | 2.38 | > 100 | > 73.5 | > 100 | > 100 | > 38.3 | > 39.5 |
| COc1ccc2cc(CNCCCCCCCCCCCCNCc3ccc4cc(OC)ccc4c3)ccc2c1 | 31.8 | 37.1 | > 37.4 | > 55.9 | 46.9 | > 56.1 | 31.7 | 28.2 | 41.3 | 36.6 | > 55.4 | 43.8 | 28.7 | 36.3 | 32.5 | 35.8 | > 58.9 | 49.9 | 35.9 |
| O=c1[nH]c(C23CC4CC(CC(C4)C2)C3)cc2c1c(=O)oc1ccccc12 | 13.7 | 17.5 | 42.7 | 46.9 | 38.5 | 22 | > 20.3 | 11.6 | 14 | 10.6 | 10.5 | 7.55 | 9.52 | > 76.2 | 5.75 | 4.23 | > 100 | 44.6 | 39.6 |
| COc1cc(OCc2nc3ccccc3n3cccc23)cc(OC)c1OC | > 74.4 | > 60.9 | 25.4 | > 82.3 | > 88.9 | > 100 | > 100 | > 100 | > 63 | > 100 | > 100 | > 100 | > 100 | > 60.9 | 52.4 | > 89.6 | 14.3 | > 100 | > 78.3 |
| O=C(c1ccccc1)c1ccc2nc3n(c2c1)C(c1c(F)cccc1F)SC3 (stereo not drawn) | 46.7 | 24.1 | 37.6 | 21.7 | 34.8 | > 74 | > 81 | 36.6 | > 73.6 | 24.8 | > 80.7 | > 63.4 | 29.4 | 91.1 | > 79.2 | 56.5 | 27.6 | 33 | 15.4 |
